Test: In vitro drug release behavior (dialysis membrane in phosphate buffer saline, 37° C.)
Format: physicochemical
Conditions: 2000 Da dialysis membrane, PBS, 5 mg Adriamycin, FIG. 6
Method: In addition, the human serum albumin nanoparticles and lipiodol, which is an embolic material, are mixed in various ratios using the same method as that used in hepatic arterial chemoembolization to be changed into an emulsion form, and the released Adriamycin is quantitatively analyzed to measure drug release behaviors.
To analyze Adriamycin released from the Adriamycin-bound human serum albumin nanoparticles, 1 mL (Adriamycin content: 5 mg) of each of the prepared samples is injected into a 2000 Da dialysis membrane and completely sealed. The resulting structure is added to a tube containing 10 mL of phosphate buffer saline and shaken at 37° C., and the dialysis membrane is transferred to a tube containing 10 mL of phosphate buffer saline at a predetermined time point to obtain each sample every time point. Groups of prepared samples are as follows:
Group 1.—free Adriamycin in phosphate buffer saline (free DOX (PBS)) or contrast media (free DOX(Pamiray)) • free Adriamycin & lipiodol with volume ratio of 1:4 (free DOX (1:4)) • human serum albumin nanoparticles carrying Adriamycin in phosphate buffered saline (DOX-HSA-NPs (PBS)) or a contrast medium (DOX-HSA-NPs (Pamiray)) • human serum albumin nanoparticles carrying Adriamycin & lipiodol in a volume ratio of 1:4 (DOX-HSA-NPs (1:4)) […]

- time of most release of the drug: ≤ 3 h
SMILES: COc1cccc2c1C(=O)c1c(O)c3c(c(O)c1C2=O)C[C@@](O)(C(=O)CO)C[C@@H]3O[C@H]1C[C@H](N)[C@H](O)[C@H](C)O1 [free DOX, Adriamycin]

— patent publication US11617723B2, “Composition for hepatic arterial chemoembolization using human serum albumin nanoparticles carrying anticancer agent, and method for producing same” (SOGANG UNIVERSITY RESEARCH FOUNDATION, priority 2016, dated 2023)
